The target of the assay is T1, glucocerebrosidase (Gcase) (Homo sapiens, UniProt P04062).
T1 construct: micellar solution containing 10 nM GCase and 100 nM saposin C
T1 sequence (P04062 40-536): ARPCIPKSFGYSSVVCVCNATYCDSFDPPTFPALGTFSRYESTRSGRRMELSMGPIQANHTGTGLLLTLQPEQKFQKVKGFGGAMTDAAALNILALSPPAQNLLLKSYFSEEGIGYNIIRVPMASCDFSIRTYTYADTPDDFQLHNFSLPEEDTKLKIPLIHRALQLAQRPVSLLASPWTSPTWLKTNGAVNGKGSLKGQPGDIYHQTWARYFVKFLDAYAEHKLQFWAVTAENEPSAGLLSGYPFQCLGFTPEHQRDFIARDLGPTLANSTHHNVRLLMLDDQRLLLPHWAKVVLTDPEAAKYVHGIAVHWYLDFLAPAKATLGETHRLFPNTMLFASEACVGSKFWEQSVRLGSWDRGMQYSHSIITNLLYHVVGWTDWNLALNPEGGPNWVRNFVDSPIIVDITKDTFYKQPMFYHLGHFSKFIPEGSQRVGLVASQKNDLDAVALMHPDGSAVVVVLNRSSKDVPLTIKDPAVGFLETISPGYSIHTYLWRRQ
The assay is described as follows: Glucocerebrosidase (Gcase) activation assay with 4-methylumbelliferyl-beta-D-glucopyranoside substrate, saposin C and phosphatidylserine/triton micelles, fluorescence readout. In kind it is biochemical. As to conditions: Table 3A. The protocol:
The ability of exemplary compounds to activate glucocerebrosidase (Gcase) was measured.
A 484 μL aliquot of a 1.0 mg/mL solution of phosphatidylserine (PS) (Sigma P7769) in chloroform was evaporated under a stream of nitrogen for 1 hour. The lipid film was dissolved over 4 minutes of vigorous vortexing in 40 mL of 176 mM K2HPO4/50 mM citric acid (pH 4.7) containing 7.5 μL of triton X-100, resulting in a mixed micellar preparation with a composition of 0.32 mM triton and 0.37 mol % PS. 4-Methylumbelliferyl-beta-D-glucopyranoside (ACROS-337025000) was dissolved in the micellar solution to a final concentration of 2 mM for use as the reaction substrate.
Test compounds were diluted to the desired concentrations with dimethylsulfoxide (DMSO) from 10 mM stocks, and 0.41 μL of the DMSO compound mixture was added to 100 μL of micellar solution containing 10 nM GCase and 100 nM saposin C (Enzo ALX-201-262-C050). Pre-incubation was allowed to occur for 30 minutes at room temperature, after which the reaction was initiated by combining 25 μL of substrate solution with 25 μL of compound/GCase/saposin mixture. The reaction proceeded for 15 minutes at room temperature and was stopped by adding 150 μL of 1M glycine, pH 12.5. The endpoint of the reaction was monitored by measuring fluorescence intensity (excitation: 365 nm; emission: 440 nm) on a SpectraMax i3 instrument (Molecular Devices). Test compounds were screened at 1.0 and 0.1 μM final concentration, and subsequent 8-point dose response curves were obtained using 3-fold dilutions from a maximum final concentration of 5 μM.

Each structure is given as a SMILES string.

For the molecule `Cc1cc(C)n2ncc(C(=O)N[C@@H](C)C3CC3)c2n1` [III-1], the “Percent Gcase Activation, 0.1 μM Test Compound” value is recorded as “* (less than 10% Gcase activation)” and the “Percent Gcase Activation, 1 μM Test Compound” value is given as “++ (Gcase activation in the range of 30% up to 60%)”.
In the same order, the values of `Cc1cc(C)n2ncc(C(=O)NC(C)(C)C3CC3)c2n1` [III-2] are “** (Gcase activation in the range of 10% up to 20%)” and “+++ (Gcase activation greater than 60%)”.
Take `Cc1cc(C)n2ncc(C(=O)N[C@H](C)C3CCCCC3)c2n1` [III-3]: the “Percent Gcase Activation, 0.1 μM Test Compound” value is given as “*** (greater than 20% Gcase activation)” and the “Percent Gcase Activation, 1 μM Test Compound” value was “+++ (Gcase activation greater than 60%)”.
`Cc1cc(C)n2ncc(C(=O)N[C@@H](C)C3CCCCC3)c2n1` [III-4]: the “Percent Gcase Activation, 0.1 μM Test Compound” value was “*** (greater than 20% Gcase activation)” and the “Percent Gcase Activation, 1 μM Test Compound” value was “+++ (Gcase activation greater than 60%)”.
Regarding `Cc1cc(C)n2ncc(C(=O)NC(CC(C)C)C3CC3)c2n1` (stereo not shown) [III-5], the “Percent Gcase Activation, 0.1 μM Test Compound” value is on record as “*** (greater than 20% Gcase activation)” and the “Percent Gcase Activation, 1 μM Test Compound” value was “+++ (Gcase activation greater than 60%)”.
Regarding `CNc1cc(C)n2ncc(C(=O)N[C@@H](C)C3CC3)c2n1` [III-6], the “Percent Gcase Activation, 0.1 μM Test Compound” value was “* (less than 10% Gcase activation)” and the “Percent Gcase Activation, 1 μM Test Compound” value is recorded as “++ (Gcase activation in the range of 30% up to 60%)”.
`Cc1cc(-c2ccc(F)cc2)nc2c(C(=O)N[C@@H](C)C3CC3)cnn12` [III-7]: the “Percent Gcase Activation, 0.1 μM Test Compound” value is on record as “** (Gcase activation in the range of 10% up to 20%)” and the “Percent Gcase Activation, 1 μM Test Compound” value is reported as “+++ (Gcase activation greater than 60%)”.
In the case of `Cc1cc(-c2ccc(F)cc2)n2ncc(C(=O)N[C@@H](C)C3CC3)c2n1` [III-8], the “Percent Gcase Activation, 0.1 μM Test Compound” value is on record as “* (less than 10% Gcase activation)” and the “Percent Gcase Activation, 1 μM Test Compound” value is recorded as “+ (less than 30% Gcase activation)”.
In the same order, the values of `Cc1cc(C)n2ncc(C(=O)NC(C3CC3)C(F)(F)F)c2n1` (stereo not shown) [III-9] are “** (Gcase activation in the range of 10% up to 20%)” and “+++ (Gcase activation greater than 60%)”.
With `Cc1cc(C)n2ncc(C(=O)N[C@H](C3CC3)C(F)(F)F)c2n1` [III-10], the “Percent Gcase Activation, 0.1 μM Test Compound” value is given as “** (Gcase activation in the range of 10% up to 20%)” and the “Percent Gcase Activation, 1 μM Test Compound” value is given as “+++ (Gcase activation greater than 60%)”.
As to `Cc1cc(C)n2ncc(C(=O)N[C@@H](C3CC3)C(F)(F)F)c2n1` [III-11], the “Percent Gcase Activation, 0.1 μM Test Compound” value is given as “** (Gcase activation in the range of 10% up to 20%)” and the “Percent Gcase Activation, 1 μM Test Compound” value is given as “+++ (Gcase activation greater than 60%)”.
As to `Cc1cc(C)n2ncc(C(=O)NC3(C4CC4)CC3)c2n1` [III-12], the “Percent Gcase Activation, 0.1 μM Test Compound” value was “* (less than 10% Gcase activation)” and the “Percent Gcase Activation, 1 μM Test Compound” value is listed as “+ (less than 30% Gcase activation)”.
With `Cc1cc(C)n2ncc(C(=O)NC(C)(C)C3CC4(CCC4)C3)c2n1` [III-13], the “Percent Gcase Activation, 0.1 μM Test Compound” value is “*** (greater than 20% Gcase activation)” and the “Percent Gcase Activation, 1 μM Test Compound” value is on record as “+++ (Gcase activation greater than 60%)”.
In the same order, the values of `Cc1cc(Cl)n2ncc(C(=O)NC(C)(C)C3CC3)c2n1` [III-14] are “** (Gcase activation in the range of 10% up to 20%)” and “++ (Gcase activation in the range of 30% up to 60%)”.
Take `Cc1cc(Cl)nc2c(C(=O)NC(C)(C)C3CC3)cnn12` [III-15]: the “Percent Gcase Activation, 0.1 μM Test Compound” value is “*** (greater than 20% Gcase activation)” and the “Percent Gcase Activation, 1 μM Test Compound” value is “+++ (Gcase activation greater than 60%)”.
On to `Cc1cc(-c2ccccn2)nc2c(C(=O)NC(C)(C)C3CC3)cnn12` [III-16], for which the “Percent Gcase Activation, 0.1 μM Test Compound” value is on record as “** (Gcase activation in the range of 10% up to 20%)” and the “Percent Gcase Activation, 1 μM Test Compound” value is given as “+++ (Gcase activation greater than 60%)”.
Take `Cc1cc(-c2ccccn2)n2ncc(C(=O)NC(C)(C)C3CC3)c2n1` [III-17]: the “Percent Gcase Activation, 0.1 μM Test Compound” value was “* (less than 10% Gcase activation)” and the “Percent Gcase Activation, 1 μM Test Compound” value is “+ (less than 30% Gcase activation)”.
For `Cc1cc(-c2cccnc2)nc2c(C(=O)NC(C)(C)C3CC3)cnn12` [III-18], the “Percent Gcase Activation, 0.1 μM Test Compound” value was “** (Gcase activation in the range of 10% up to 20%)” and the “Percent Gcase Activation, 1 μM Test Compound” value is on record as “+++ (Gcase activation greater than 60%)”.
The corresponding values for `Cc1cc(-c2cccnc2)n2ncc(C(=O)NC(C)(C)C3CC3)c2n1` [III-19] are “* (less than 10% Gcase activation)” and “+ (less than 30% Gcase activation)”.
Take `Cc1cc(-c2ccncc2)nc2c(C(=O)NC(C)(C)C3CC3)cnn12` [III-20]: the “Percent Gcase Activation, 0.1 μM Test Compound” value is recorded as “* (less than 10% Gcase activation)” and the “Percent Gcase Activation, 1 μM Test Compound” value is “+++ (Gcase activation greater than 60%)”.
For the molecule `Cc1cc(-c2ccncc2)n2ncc(C(=O)NC(C)(C)C3CC3)c2n1` [III-21], the “Percent Gcase Activation, 0.1 μM Test Compound” value is reported as “* (less than 10% Gcase activation)” and the “Percent Gcase Activation, 1 μM Test Compound” value is “+ (less than 30% Gcase activation)”.
For the molecule `Cc1cc(N2CCCCC2)n2ncc(C(=O)NC(C)(C)C3CC3)c2n1` [III-22], the “Percent Gcase Activation, 0.1 μM Test Compound” value is reported as “* (less than 10% Gcase activation)” and the “Percent Gcase Activation, 1 μM Test Compound” value is listed as “++ (Gcase activation in the range of 30% up to 60%)”.
As to `Cc1cc(N2CCCCC2)nc2c(C(=O)NC(C)(C)C3CC3)cnn12` [III-23], the “Percent Gcase Activation, 0.1 μM Test Compound” value is “*** (greater than 20% Gcase activation)” and the “Percent Gcase Activation, 1 μM Test Compound” value was “+++ (Gcase activation greater than 60%)”.
Consider `Cc1cc(-c2ccccn2)n2ncc(C(=O)N[C@@H](C)C3CC3)c2n1` [III-25], for which the “Percent Gcase Activation, 0.1 μM Test Compound” value was “* (less than 10% Gcase activation)” and the “Percent Gcase Activation, 1 μM Test Compound” value is “+ (less than 30% Gcase activation)”.
In the case of `Cc1cc(-c2cccnc2)n2ncc(C(=O)N[C@@H](C)C3CC3)c2n1` [III-27], the “Percent Gcase Activation, 0.1 μM Test Compound” value is “* (less than 10% Gcase activation)” and the “Percent Gcase Activation, 1 μM Test Compound” value is recorded as “+ (less than 30% Gcase activation)”.
Consider `Cc1cc(-c2ccncc2)nc2c(C(=O)NC(C)C3CC3)cnn12` (stereo not shown) [III-28], for which the “Percent Gcase Activation, 0.1 μM Test Compound” value is “* (less than 10% Gcase activation)” and the “Percent Gcase Activation, 1 μM Test Compound” value was “++ (Gcase activation in the range of 30% up to 60%)”.
`Cc1cc(-c2ccncc2)n2ncc(C(=O)N[C@@H](C)C3CC3)c2n1` [III-29]: the “Percent Gcase Activation, 0.1 μM Test Compound” value is “* (less than 10% Gcase activation)” and the “Percent Gcase Activation, 1 μM Test Compound” value is reported as “+ (less than 30% Gcase activation)”.
Take `Cc1cc(N2CCCCC2)n2ncc(C(=O)N[C@@H](C)C3CC3)c2n1` [III-30]: the “Percent Gcase Activation, 0.1 μM Test Compound” value was “* (less than 10% Gcase activation)” and the “Percent Gcase Activation, 1 μM Test Compound” value was “+ (less than 30% Gcase activation)”.
Turning to `Cc1cc(N2CCCCC2)nc2c(C(=O)NC(C)C3CC3)cnn12` (stereo not shown) [III-31], the “Percent Gcase Activation, 0.1 μM Test Compound” value was “*** (greater than 20% Gcase activation)” and the “Percent Gcase Activation, 1 μM Test Compound” value is “+++ (Gcase activation greater than 60%)”.
In the case of `Cc1cc(-c2ccc(F)cc2)nc2c(C(=O)N[C@@H](C)C3CC3)c(Cl)nn12` [III-32], the “Percent Gcase Activation, 0.1 μM Test Compound” value is given as “** (Gcase activation in the range of 10% up to 20%)” and the “Percent Gcase Activation, 1 μM Test Compound” value was “+++ (Gcase activation greater than 60%)”.
Regarding `Cc1cc(-c2ccc(F)cc2)n2nc(Cl)c(C(=O)N[C@@H](C)C3CC3)c2n1` [III-33], the “Percent Gcase Activation, 0.1 μM Test Compound” value is reported as “* (less than 10% Gcase activation)” and the “Percent Gcase Activation, 1 μM Test Compound” value is reported as “++ (Gcase activation in the range of 30% up to 60%)”.
In the same order, the values of `Cc1cc(C)n2nc(Cl)c(C(=O)N[C@@H](C)C3CC3)c2n1` [III-34] are “* (less than 10% Gcase activation)” and “+ (less than 30% Gcase activation)”.

These data come from patent US10934298B2, “Substituted pyrazolo[1,5-a]pyrimidines for the treatment of medical disorders” (BIAL—BioTech Investments, Inc., priority 2016, dated 2021).
